In patent US12516056B2, “Compounds for inhibition of janus kinase 1” (MANKIND PHARMA LTD., priority 2019, dated 2026):

Tests used:
[1] = tested on: STAT3 phosphorylation by IL-6 in TF-1 cells; test: JAK cellular assay: STAT3 phosphorylation by IL-6 in TF-1 cells (HTRF); type: cell-based; settings: Homo sapiens, TF-1, TF-1 cells, IL-6 30 ng/ml, pSTAT3 HTRF; read-out: Cell Based Assay (μM) TF-1/IL-6/pSTAT3
In short: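 TF-1 cells starved overnight in low-serum OptiMEM, then 120,000/well in RPMI, preincubated with compound 30 min at 37 °C (0.2% DMSO final). Stimulation 20 min with IL-6 30 ng/ml (pSTAT3) or GMCSF 5 ng/ml (pSTAT5); lysate phospho-STAT by HTRF, unstimulated background subtracted.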

[2] = target: T1, Recombinant JAK1 (Homo sapiens, UniProt P23458); test: JAK biochemical assay (LANCE Ultra TR-FRET), JAK1; settings: recombinant JAK1, TR-FRET; read-out: Biochemical Assay (μM) JAK1
T1 construct: purchased Carna Biosciences
In short: (§1)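 Kinase reactions ran in buffer of 50 mM HEPES pH 7.5 with 1 mM EGTA, 10 mM MgCl2, 2 mM DTT and 0.01% Tween-20, using recombinant enzyme. Phosphorylated ULight substrate was detected by TR-FRET, and compound effect expressed as % inhibition against vehicle.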

[3] = target: T2, Recombinant TYK2 (Homo sapiens, UniProt P29597); test: JAK biochemical assay (LANCE Ultra TR-FRET), TYK2; settings: recombinant TYK2, TR-FRET; read-out: Biochemical Assay (μM) TYK2
T2 construct: purchased Carna Biosciences
In short: as §1

[4] = target: T3, Recombinant JAK2 (Homo sapiens, UniProt O60674); test: JAK biochemical assay (LANCE Ultra TR-FRET), JAK2; settings: recombinant JAK2, TR-FRET; read-out: Biochemical Assay (μM) JAK2
T3 construct: purchased Carna Biosciences
In short: as §1

[5] = tested on: STAT5 phosphorylation by GMCSF in TF-1 cells; test: JAK cellular assay: STAT5 phosphorylation by GMCSF in TF-1 cells (HTRF); type: cell-based; settings: Homo sapiens; TF-1 cells, GMCSF 5 ng/ml, pSTAT5 HTRF; read-out: Cell Based Assay (μM) TF-1/GMCSF/pSTAT5
Experimental: TF-1 cells were starved overnight in OptiMEM medium with 0.5% charcoal stripped fetal bovine serum, 0.1 mM nonessential amino acids (NEAA), 1 mM sodium pyruvate and without phenol red in CO2 incubator maintained at 37° c. Next day, cells were resuspended in RPMI without phenol red and dispensed into a 96 well plate at a final cell density of 1,20,000 cells per well. Compounds were diluted in DMSO and added to cells and incubated for 30 minutes in CO2 incubator maintained at 37° c. Final DMSO concentration in cell based assay was 0.2%. Human recombinant cytokines, IL-6 (30 ng/ml) and GMCSF (5 ng/ml) were added to the plate containing cells along with compound and incubated for 20 minutes with gentle tapping at every 5 minutes once. Compound mediated effects on STAT3 and STAT5 phosphorylation was measured in the lysates prepared by using CISBIO pSTAT3 and pSTAT5 detection kits by HTRF method. Background signal obtained from cells which were not activated with cytokines, was subtracted from vehicle controls and compound treated wells.

[6] = target: T4, Recombinant JAK3 (Homo sapiens, UniProt P52333); test: JAK biochemical assay (LANCE Ultra TR-FRET), JAK3; settings: recombinant JAK3, TR-FRET; read-out: Biochemical Assay (μM) JAK3
T4 construct: purchased Carna Biosciences
T4 sequence (P52333 1-1124): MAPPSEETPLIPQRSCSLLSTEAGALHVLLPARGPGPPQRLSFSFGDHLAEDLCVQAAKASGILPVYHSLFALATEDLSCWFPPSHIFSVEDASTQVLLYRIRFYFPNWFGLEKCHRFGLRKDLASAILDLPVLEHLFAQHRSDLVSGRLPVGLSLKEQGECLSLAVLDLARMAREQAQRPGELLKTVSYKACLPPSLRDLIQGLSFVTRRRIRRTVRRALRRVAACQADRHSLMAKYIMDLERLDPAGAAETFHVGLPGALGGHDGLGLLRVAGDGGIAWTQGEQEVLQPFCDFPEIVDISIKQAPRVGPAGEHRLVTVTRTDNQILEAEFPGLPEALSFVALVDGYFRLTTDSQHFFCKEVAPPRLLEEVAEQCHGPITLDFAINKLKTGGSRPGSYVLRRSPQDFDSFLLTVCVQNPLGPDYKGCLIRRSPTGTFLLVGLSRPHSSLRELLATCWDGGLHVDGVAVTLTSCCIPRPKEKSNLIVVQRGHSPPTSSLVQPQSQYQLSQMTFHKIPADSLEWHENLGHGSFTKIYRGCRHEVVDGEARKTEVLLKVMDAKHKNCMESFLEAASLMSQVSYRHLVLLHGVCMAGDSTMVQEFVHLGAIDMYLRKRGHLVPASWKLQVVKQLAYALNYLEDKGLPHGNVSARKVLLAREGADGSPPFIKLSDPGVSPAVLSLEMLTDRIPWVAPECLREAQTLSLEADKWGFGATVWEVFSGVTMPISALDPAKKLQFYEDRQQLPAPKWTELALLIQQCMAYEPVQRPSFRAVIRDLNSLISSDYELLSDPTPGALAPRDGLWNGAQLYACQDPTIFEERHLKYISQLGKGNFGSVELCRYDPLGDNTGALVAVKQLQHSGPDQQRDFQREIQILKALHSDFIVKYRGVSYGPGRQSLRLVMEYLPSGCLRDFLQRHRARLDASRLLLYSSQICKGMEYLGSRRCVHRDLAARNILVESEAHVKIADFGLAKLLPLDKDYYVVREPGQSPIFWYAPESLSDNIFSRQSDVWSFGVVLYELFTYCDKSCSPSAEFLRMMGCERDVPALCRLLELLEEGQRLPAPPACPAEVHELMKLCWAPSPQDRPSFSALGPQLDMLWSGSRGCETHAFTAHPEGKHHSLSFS
In short: as §1

T3 sequence (O60674 whole entry): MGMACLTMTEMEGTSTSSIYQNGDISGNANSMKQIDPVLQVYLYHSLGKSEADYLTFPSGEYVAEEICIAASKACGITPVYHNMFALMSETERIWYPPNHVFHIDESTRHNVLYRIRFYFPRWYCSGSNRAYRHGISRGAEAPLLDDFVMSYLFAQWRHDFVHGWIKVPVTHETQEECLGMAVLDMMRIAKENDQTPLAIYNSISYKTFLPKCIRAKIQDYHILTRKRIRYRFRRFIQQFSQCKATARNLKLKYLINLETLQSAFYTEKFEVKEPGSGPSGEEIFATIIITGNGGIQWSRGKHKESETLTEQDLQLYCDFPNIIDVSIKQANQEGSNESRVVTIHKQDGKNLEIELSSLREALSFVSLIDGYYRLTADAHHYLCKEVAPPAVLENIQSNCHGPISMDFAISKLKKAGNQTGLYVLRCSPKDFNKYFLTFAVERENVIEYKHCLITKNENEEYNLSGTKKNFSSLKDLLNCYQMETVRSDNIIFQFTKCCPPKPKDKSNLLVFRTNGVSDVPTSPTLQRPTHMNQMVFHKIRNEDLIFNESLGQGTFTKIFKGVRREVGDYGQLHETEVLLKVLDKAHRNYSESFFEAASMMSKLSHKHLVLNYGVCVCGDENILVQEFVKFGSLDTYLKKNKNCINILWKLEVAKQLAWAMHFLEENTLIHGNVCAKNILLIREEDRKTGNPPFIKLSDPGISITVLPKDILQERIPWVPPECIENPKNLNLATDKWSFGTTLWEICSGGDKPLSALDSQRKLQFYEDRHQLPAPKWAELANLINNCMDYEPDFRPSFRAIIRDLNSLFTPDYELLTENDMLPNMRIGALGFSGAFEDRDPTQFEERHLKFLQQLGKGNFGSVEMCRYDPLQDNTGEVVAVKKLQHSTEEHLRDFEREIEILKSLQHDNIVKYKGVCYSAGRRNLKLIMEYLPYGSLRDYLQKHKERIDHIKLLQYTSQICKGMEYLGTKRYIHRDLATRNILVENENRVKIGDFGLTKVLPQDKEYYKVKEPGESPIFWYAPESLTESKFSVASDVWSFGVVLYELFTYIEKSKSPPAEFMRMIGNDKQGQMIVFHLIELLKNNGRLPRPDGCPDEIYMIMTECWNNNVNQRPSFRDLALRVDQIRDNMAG
T2 sequence (P29597 whole entry): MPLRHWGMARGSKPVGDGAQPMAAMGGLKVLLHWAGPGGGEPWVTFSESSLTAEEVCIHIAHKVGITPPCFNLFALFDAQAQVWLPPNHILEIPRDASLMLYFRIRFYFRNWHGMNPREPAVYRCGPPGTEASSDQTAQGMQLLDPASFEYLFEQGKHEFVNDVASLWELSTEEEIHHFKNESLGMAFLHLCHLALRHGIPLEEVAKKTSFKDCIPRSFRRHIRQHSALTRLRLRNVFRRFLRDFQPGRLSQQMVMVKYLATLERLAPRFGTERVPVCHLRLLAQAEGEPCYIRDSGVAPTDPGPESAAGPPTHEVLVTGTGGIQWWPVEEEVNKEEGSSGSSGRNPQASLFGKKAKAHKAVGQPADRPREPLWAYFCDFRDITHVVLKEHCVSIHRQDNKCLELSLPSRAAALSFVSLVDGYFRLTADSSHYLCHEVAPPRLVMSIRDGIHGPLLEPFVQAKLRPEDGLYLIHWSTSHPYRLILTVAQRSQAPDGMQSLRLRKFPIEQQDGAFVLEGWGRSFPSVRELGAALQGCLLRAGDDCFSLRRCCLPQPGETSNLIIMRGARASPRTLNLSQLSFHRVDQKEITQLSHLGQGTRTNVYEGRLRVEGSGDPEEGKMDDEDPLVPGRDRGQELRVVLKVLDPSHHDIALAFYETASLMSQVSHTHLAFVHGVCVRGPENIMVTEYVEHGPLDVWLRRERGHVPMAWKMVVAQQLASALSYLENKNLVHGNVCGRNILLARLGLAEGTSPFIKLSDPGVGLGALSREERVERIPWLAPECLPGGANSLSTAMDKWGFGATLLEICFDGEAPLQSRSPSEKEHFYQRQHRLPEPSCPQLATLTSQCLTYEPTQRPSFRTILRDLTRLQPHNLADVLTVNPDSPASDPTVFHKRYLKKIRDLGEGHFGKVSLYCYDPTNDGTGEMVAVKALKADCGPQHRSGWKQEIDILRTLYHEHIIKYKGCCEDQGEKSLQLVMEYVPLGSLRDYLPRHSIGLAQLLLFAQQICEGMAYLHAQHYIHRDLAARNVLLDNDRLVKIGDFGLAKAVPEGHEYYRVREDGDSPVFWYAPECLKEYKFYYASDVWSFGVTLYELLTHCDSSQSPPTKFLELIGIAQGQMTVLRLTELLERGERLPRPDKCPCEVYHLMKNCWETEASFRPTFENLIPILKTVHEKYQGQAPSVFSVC
T1 sequence (P23458 whole entry): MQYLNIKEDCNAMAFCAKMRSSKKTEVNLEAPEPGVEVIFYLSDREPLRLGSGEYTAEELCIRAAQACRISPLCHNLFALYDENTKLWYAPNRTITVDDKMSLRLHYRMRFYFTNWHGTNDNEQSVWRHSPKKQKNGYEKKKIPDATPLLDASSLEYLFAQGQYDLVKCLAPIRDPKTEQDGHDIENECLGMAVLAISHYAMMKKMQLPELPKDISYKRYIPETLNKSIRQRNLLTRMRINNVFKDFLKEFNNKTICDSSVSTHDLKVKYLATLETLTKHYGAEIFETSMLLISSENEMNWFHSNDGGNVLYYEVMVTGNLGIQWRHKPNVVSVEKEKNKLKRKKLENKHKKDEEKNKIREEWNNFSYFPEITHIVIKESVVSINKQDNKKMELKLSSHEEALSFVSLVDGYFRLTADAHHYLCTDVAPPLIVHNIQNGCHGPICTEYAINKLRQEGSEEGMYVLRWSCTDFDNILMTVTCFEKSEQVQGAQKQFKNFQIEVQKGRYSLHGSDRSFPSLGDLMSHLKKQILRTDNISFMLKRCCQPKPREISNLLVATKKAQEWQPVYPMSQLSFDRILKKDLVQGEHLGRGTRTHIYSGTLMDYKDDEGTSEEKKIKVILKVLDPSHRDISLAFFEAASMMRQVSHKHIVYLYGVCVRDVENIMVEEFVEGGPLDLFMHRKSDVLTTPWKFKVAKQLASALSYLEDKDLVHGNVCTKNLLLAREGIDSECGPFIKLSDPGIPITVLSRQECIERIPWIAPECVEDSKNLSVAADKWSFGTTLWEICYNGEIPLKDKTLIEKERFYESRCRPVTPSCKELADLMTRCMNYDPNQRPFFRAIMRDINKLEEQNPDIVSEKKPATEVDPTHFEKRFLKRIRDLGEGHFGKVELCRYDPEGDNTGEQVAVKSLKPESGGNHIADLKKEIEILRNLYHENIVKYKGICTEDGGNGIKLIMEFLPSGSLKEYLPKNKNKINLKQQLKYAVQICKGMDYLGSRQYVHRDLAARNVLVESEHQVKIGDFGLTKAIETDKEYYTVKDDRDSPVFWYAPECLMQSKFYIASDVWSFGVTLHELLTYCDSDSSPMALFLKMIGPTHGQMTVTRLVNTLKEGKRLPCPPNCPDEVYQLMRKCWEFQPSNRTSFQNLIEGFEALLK

| IC50 [1] | IC50 [2] | IC50 [3] | IC50 [4] | IC50 [5] | IC50 [6] | SMILES |
| --- | --- | --- | --- | --- | --- | --- |
| > 1 µM | < 0.5 µM | > 1 µM | < 0.5 µM | > 10 µM | < 0.5 µM | N#CCc1cccc(-n2cc(-c3ccnc4[nH]cnc34)cn2)c1 [Example 1106, 2-(3-(4-(3H-imidazo[4,5-b]pyridin-7-yl)-1H-pyrazol-1-yl)phenyl)acetonitrile] |
| > 1 µM | < 0.1 µM | > 1 µM | > 0.1 µM | > 10 µM | < 0.1 µM | CC(C#N)c1ccc(-n2cc(-c3ccnc4[nH]cnc34)cn2)nc1 (stereo not drawn) [Example 1107, 2-(6-(4-(3H-imidazo[4,5-b]pyridin-7-yl)-1H-pyrazol-1-yl)pyridin-3-yl)propanenitrile] |
| > 10 µM | > 0.1 µM | > 1 µM | > 0.5 µM | > 10 µM | > 0.1 µM | CC(C(N)=O)c1ccc(-n2cc(-c3ccnc4[nH]cnc34)cn2)nc1 (stereo not drawn) [Example 1108, 2-(6-(4-(3H-imidazo[4,5-b]pyridin-7-yl)-1H-pyrazol-1-yl)pyridin-3-yl)propanamide] |
| > 1 µM | < 0.5 µM | > 10 µM | < 0.5 µM | > 10 µM | < 0.5 µM | N#CC1(c2ccc(-n3cc(-c4ccnc5[nH]cnc45)cn3)nc2)CC1 [Example 1109, 1-(6-(4-(3H-imidazo[4,5-b]pyridin-7-yl)-1H-pyrazol-1-yl)pyridin-3-yl)cyclopropanecarbonitrile] |
| > 10 µM | < 0.5 µM | > 10 µM | > 0.5 µM | > 10 µM | < 0.5 µM | N#CC(c1ccc(-n2cc(-c3ccnc4[nH]cnc34)cn2)nc1)N1CC(F)(F)C1 (stereo not drawn) [Example 1111, 2-(6-(4-(3H-imidazo[4,5-b]pyridin-7-yl)-1H-pyrazol-1-yl)pyridin-3-yl)-2-(3,3-difluoroazetidin-1-yl)acetonitrile] |
| > 10 µM | > 1 µM | > 1 µM | > 0.1 µM | > 10 µM | > 0.5 µM | N#CC(c1ccc(-n2cc(-c3ccnc4[nH]cnc34)cn2)nc1)N1CCS(=O)(=O)CC1 (stereo not drawn) [Example 1113, 2-(6-(4-(3H-imidazo[4,5-b]pyridin-7-yl)-1H-pyrazol-1-yl)pyridin-3-yl)-2-(1,1-dioxidothiomorpholino)acetonitrile] |

The remaining lines, values behind:

| SMILES | IC50 [1] | IC50 [2] | IC50 [3] | IC50 [4] | IC50 [5] | IC50 [6] |
| --- | --- | --- | --- | --- | --- | --- |
| N#CCc1csc(-n2cc(-c3ccnc4[nH]cnc34)cn2)n1 [Example 1076, 2-(2-(4-(3H-imidazo[4,5-b]pyridin-7-yl)-1H-pyrazol-1-yl)thiazol-4-yl)acetonitrile] | 6 µM | 0.037 µM | > 1 µM | 0.085 µM | > 10 µM | < 0.5 µM |
| c1cc(-c2cnn(Cc3cnco3)c2)c2nc[nH]c2n1 [Example 1077, 7-(1-((oxazol-5-yl)methyl)-1H-pyrazol-4-yl)-3H-imidazo[4,5-b]pyridine] | > 10 µM | > 1 µM | > 10 µM | > 1 µM | > 10 µM | > 1 µM |
| CS(=O)(=O)Cc1ccc(-n2cc(-c3ccnc4[nH]cnc34)cn2)nc1 [Example 1080, 7-(1-(5-((methylsulfonyl)methyl)pyridin-2-yl)-1H-pyrazol-4-yl)-3H-imidazo[4,5-b]pyridine] | > 1 µM | 0.068 µM | > 10 µM | < 0.5 µM | > 10 µM | < 0.5 µM |
| c1cc(-c2cnn(-c3ccc(CC4COC4)cn3)c2)c2nc[nH]c2n1 [Example 1081, 7-(1-(5-((oxetan-3-yl)methyl)pyridin-2-yl)-1H-pyrazol-4-yl)-3H-imidazo[4,5-b]pyridine] | > 1 µM | < 0.5 µM | > 10 µM | > 0.5 µM | > 10 µM | < 0.5 µM |
| O=S1(=O)CCN(Cc2ccc(-n3cc(-c4ccnc5[nH]cnc45)cn3)nc2)CC1 [Example 1086, 4-((6-(4-(3H-imidazo[4,5-b]pyridin-7-yl)-1H-pyrazol-1-yl)pyridin-3-yl)methyl)thiomorpholine 1,1-dioxide] | > 10 µM | < 0.5 µM | > 10 µM | > 0.5 µM | > 10 µM | > 0.5 µM |
| O=C(NCC(F)(F)F)n1cc(-c2ccnc3[nH]c(-c4ccccc4)nc23)cn1 [Example 1094, N-(2,2,2-trifluoroethyl)-4-(2-phenyl-3H-imidazo[4,5-b]pyridin-7-yl)-1H-pyrazole-1-carboxamide] | > 1 µM | < 0.5 µM | < 0.5 µM | < 0.5 µM | > 1 µM | < 0.5 µM |
| N#CCc1ccc(-n2cc(-c3ccnc4[nH]cnc34)cn2)cc1 [Example 1099, 2-(4-(4-(3H-imidazo[4,5-b]pyridin-7-yl)-1H-pyrazol-1-yl)phenyl)acetonitrile] | > 1 µM | < 0.5 µM | > 1 µM | < 0.5 µM | > 10 µM | < 0.5 µM |
| N#CC(c1ccc(-n2cc(-c3ccnc4[nH]cnc34)cn2)cc1)C1CC1 (stereo not drawn) [Example 1100, 2-(4-(4-(3H-imidazo[4,5-b]pyridin-7-yl)-1H-pyrazol-1-yl)phenyl)-2-cyclopropylacetonitrile] | > 10 µM | > 0.5 µM | > 10 µM | > 0.5 µM | > 10 µM | > 0.5 µM |
| N#CC(c1ccc(-n2cc(-c3ccnc4[nH]cnc34)cn2)cc1)N1CCOCC1 (stereo not drawn) [Example 1101, 2-(4-(4-(3H-imidazo[4,5-b]pyridin-7-yl)-1H-pyrazol-1-yl)phenyl)-2-morpholinoacetonitrile] | > 10 µM | > 0.5 µM | > 10 µM | > 0.5 µM | > 10 µM | > 1 µM |
| N#CCC(=O)Nc1ccc(-n2cc(-c3ccnc4[nH]cnc34)cn2)cc1 [Example 1102, N-(4-(4-(3H-imidazo[4,5-b]pyridin-7-yl)-1H-pyrazol-1-yl)phenyl)-2-cyanoacetamide] | > 10 µM | < 0.5 µM | > 1 µM | > 0.5 µM | > 10 µM | > 0.5 µM |
| N#CCc1ccc(-n2cc(-c3ccnc4[nH]cnc34)cn2)c(F)c1 [Example 1103, 2-(4-(4-(3H-imidazo[4,5-b]pyridin-7-yl)-1H-pyrazol-1-yl)-3-fluorophenyl)acetonitrile] | > 1 µM | > 0.5 µM | > 10 µM | > 0.5 µM | > 10 µM | > 10 µM |
